Experimental data from US20030003057A1, “Methods for administering leuprolide by inhalation” (priority 2000, published 2003).

Experiment: clinical
Settings: human, in vivo
Source text: Capsules were bottled and the bottles individually enclosed in an appropriately labeled sealed foil pouch with desiccant and stored at room temperature. […] Subjects were instructed to inhale deeply and forcefully while wearing nose clips. Inhalations were followed by a 5 second breath hold prior to exhalation. […] Leuprolide was supplied in multiple dose vials as a sterile aqueous solution for injection. […] The pH was adjusted with sodium hydroxide or acetic acid. Prior to administration, each vial was visually inspected for particulate matter or discoloration. The leuprolide vials were stored at room temperature. […] The injection was given in the opposite arm to that used for blood sample for pharmacokinetic assessments. There were 2 dosing visits, followed by a post study medical 3 to 14 days after the last dose. The interval between doses was no less than 7 days. […] [table] Relative bioavailability: The bioavailability (BA) of the leuprolide formulation delivered from Turbospin, relative to intravenous injection of leuprolide, was determined from the ratio of log-transformed AUC values, according to the following equation, Relative BA=(InAUCPulmoSphere/InAUCiv) * (nominal dosePulmoSphere/doseiv), […]

In the case of `CCNC(=O)[C@@H]1CCCN1C(=O)[C@H](CCCNC(=N)N)NC(=O)[C@H](CC(C)C)NC(=O)[C@@H](CC(C)C)NC(=O)[C@H](Cc1ccc(O)cc1)NC(=O)[C@H](CO)NC(=O)[C@H](Cc1c[nH]c2ccccc12)NC(=O)[C@H](Cc1c[nH]cn1)NC(=O)[C@@H]1CCC(=O)N1` [leuprolide], the bioavailability is reported as roughly 18%.
